Measured values published in US20240385182A1, “MASKED FLUOROGENIC LIPID COMPOUNDS, LIPID PARTICLES COMPRISING THE SAME, AND METHODS OF USE THEREOF” (Rutgers, The State University of New Jersey, priority 2023, published 2024).

Experiments:
[1] = Photophysical characterization of probes and uncaged forms (relative fluorescence quantum yield, extinction coefficient, brightness); assay type: physicochemical; conditions: for Brightness: in M⁻¹·cm⁻¹ (unit assumed)
Description: (§1) The pKa of TEG-TC was determined to be 7.1±0.1 using UV-Vis spectrophotometric measurements. Under the confocal imaging conditions (pH 7.5-8.5 with cell-free assays, pH 7.4 with cells), a substantial population of the 7-hydroxycoumarin should exist in its aryloxide form. The change in coumarin fluorogenicity was assessed upon uncaging the probes from the oxobutylphenyl carbonate by measuring the relative fluorescence quantum yield (ΦFrel) values (Table 2). Coumarin 343 was used as a standard, which has an absolute fluorescence quantum yield ([…]) of 0.63 in ethanol. The ΦFrel values of TEG-TC-ONOO^− (entry 1) and DPPC-TC-ONOO^− (entry 3) were measured as 0.08 and 0.09, respectively. […] The ΦFrel values for TEG-TC (entry 2) and DPPC-TC (entry 4), which were synthesized independently, were measured as 0.66 and 0.64, respectively.
Next, the impact of caging and uncaging of the coumarin or fluorescein moieties on their fluorogenicity was assessed by measuring the relative fluorescence quantum yield (ΦFrel) values (Table 3). Coumarin 343 was used as the standard for measuring ΦFrel of the triazole-coumarin compounds (TEG-TC-H2S, TEG-TC, DPPC-TC-H2S, and DPPC-TC) whereas fluorescein for the triazole-fluorescein compounds (TEG-TF-H2O2, TEG-TF, and DPPC-TF-H2O2, and DPPC-TF). Relative to coumarin 343, whose absolute fluorescence quantum yield (ΦF) is 0.63 in ethanol, ΦFrels of the H2S probes TEG-TC-H2S (entry 1) and DPPC-TC-H2S (entry 3) were determined to be 0.07 and 0.03, respectively.
(§2) The pKa of TEG-TC was previously found to be to be 7.1±0.1 using UV-Vis spectrophotometric measurements. Under the fluorescence activation assay conditions that are employed here (Tris 50 mM, pH 7.5), a substantial population of the coumarin moiety is expected to be in its aryloxide anion form. Relative to fluorescein, whose ΦF is 0.79 in ethanol, ΦFrel values of the H2O2 probes TEG-TF-H2O2 (entry 5) and DPPC-TF-H2O2 (entry 7) were determined to be 0.04 and 0.02, respectively.

[2] = Confocal imaging of H2O2-sensing giant vesicles
From the text: FIGS. 14A-14B: giant vesicles (GVs) that can sense reductive (FIG. 14A) or oxidative (FIG. 14B) environments. Confocal images acquired for H2S-sensing GV at 405/475 nm (ex/em) (FIG. 14A) and H2O2 sensing GV at 490/520 nm (ex/em) (FIG. 14B). Lipid compositions of GVs: POPC, POPG, cholesterol, and DPPC-TC-H2S (48:21:30:1 molar ratio; FIG. 14A); and POPC, POPG, cholesterol, and DPPC-TF-H2O2 (48.5:21:30:0.5; FIG. 14B). To label vesicle membranes, Liss-Rhod PE dye (563/580 nm) was introduced to the lipid mixture at an insignificant molar ratio (0.1 mol %). Concentrations of RSS and ROS were set to 500 and 100 μM, respectively. Scale bar=5 μm.
The redox sensing abilities of giant vesicles (GVs) comprising DPPC-TC-H2S or DPPC-TF-H2O2 were investigated. In most biomimetic systems that rely on compartmentalization, physical membrane boundaries are comprised of phospholipids and cholesterol. These lipid self-assemblies have dimensional properties (1-30 μm in diameter) relevant to those of a mammalian plasma membrane (10-100 μm), display physical characteristics feasible for confocal fluorescence imaging, and are conveniently utilized for bottom-up construction of biomimetic protocells. […]
The vesicle size distribution was analyzed by dynamic light scattering (DLS), confirming the presence of GVs. […]

[3] = in ethanol; standard; cited from earlier work
[4] = Fluorescence response of TEG-TC-ONOO^− to peroxynitrite in Tris buffer (plate reader)
Description: FIG. 7A: time-dependent change in relative fluorescence intensities for probe TEG-TC-ONOO^− (1 μM) and compound TEG-TC (1 μM) in Tris (50 mM, pH 7.5) upon addition of ONOO^− (600 μM). Filled square: TEG-TC, hollow square: TEG-TC+ONOO^−, filled circle: TEG-TC-ONOO^−, and hollow circle: TEG-TC-ONOO^−+ONOO^−. Error bars represent standard deviation, n=3. FIG. 7B: relative fluorescence intensity (F) with respect to the background fluorescence intensity (F0) of TEG-TC-ONOO^− in the absence or presence of redox species. Probe TEG-TC-ONOO^− (1 μM) was dissolved in Tris buffer (50 mM, pH 7.5) and subjected to RNS and ROS (600 μM): ONOO^−, NO·, H2O2, HO·, ^1O2, and O·^−. Data represent FIFO measurements for samples incubated for 60 min. Plate reader was set to excitation at 405 nm and emission at 475 nm. Error bars represent standard deviation, n=3. The response rate and magnitude of TEG-TC-ONOO^− against ONOO^− was evaluated by measuring the relative fluorescence intensities of samples containing TEG-TC-ONOO^− and TEG-TC (positive control) at 405 nm excitation (FIG. 7A). These samples, prepared in Tris buffer (50 mM, pH 7.5), were measured over 60 minutes of incubation with and without ONOO^−. Physiologically normal ONOO^− production rate in cells has been estimated to be in the single-digit μM range, while reaching up to 100 μM under dysregulated conditions. Guided by this information, and in agreement with the fluorescence titration conditions employed for cytosolic resorufin-based peroxynitrite sensors, it was reasoned that administering 600 μM of ONOO^− into a pH 7.5 medium would provide a steady level of effective ONOO^− within a biologically relevant concentration range of […]. […] The difference in fluorescence between the peroxynitrite-treated and untreated samples reached up to 5-fold at the end of 60 minutes. During this time period, the relative fluorescence intensity of the sample containing TEG-TC-ONOO^− became ˜85% of that of the sample containing TEG-TC (positive control). This trend of increasing fluorescence output was mirrored in the level of conversion of TEG-TC-ONOO^− into TEG-TC based on UV-Vis spectrophotometric measurements. The peroxynitrite-specificity of the probe design was assessed by subjecting TEG-TC-ONOO^− to other redox species, including NO·, hydrogen peroxide (H2O2), singlet oxygen (^1O2), hydroxyl radicals (HO·), and O2·^− (FIG. 7B). Change in fluorescence intensity following excitation at 405 nm was measured over 60 minutes of incubation of TEG-TC-ONOO^− with each species and presented based on the signal-to-background ratio F/F0, where F and F0 are defined as the fluorescence with and without the analyte. In the absence of a redox species, F/F0 for TEG-TC-ONOO^− increased only 13% (F/F0=1.13) over 60 minutes. Treatment of TEG-TC-ONOO^− with ONOO^− gave rise to ˜570% increase in fluorescence (F/F0=6.69).

[5] = Peroxynitrite-specificity: TEG-TC-ONOO^− subjected to other redox species; conditions: for F/F0: 60 min
Description: FIG. 7A: time-dependent change in relative fluorescence intensities for probe TEG-TC-ONOO^− (1 μM) and compound TEG-TC (1 μM) in Tris (50 mM, pH 7.5) upon addition of ONOO^− (600 μM). Filled square: TEG-TC, hollow square: TEG-TC+ONOO^−, filled circle: TEG-TC-ONOO^−, and hollow circle: TEG-TC-ONOO^−+ONOO^−. Error bars represent standard deviation, n=3. FIG. 7B: relative fluorescence intensity (F) with respect to the background fluorescence intensity (F0) of TEG-TC-ONOO^− in the absence or presence of redox species. Probe TEG-TC-ONOO^− (1 μM) was dissolved in Tris buffer (50 mM, pH 7.5) and subjected to RNS and ROS (600 μM): ONOO^−, NO·, H2O2, HO·, ^1O2, and O·^−. Data represent FIFO measurements for samples incubated for 60 min. Plate reader was set to excitation at 405 nm and emission at 475 nm. Error bars represent standard deviation, n=3. The peroxynitrite-specificity of the probe design was assessed by subjecting TEG-TC-ONOO^− to other redox species, including NO·, hydrogen peroxide (H2O2), singlet oxygen (^1O2), hydroxyl radicals (HO·), and O2·^− (FIG. 7B). Change in fluorescence intensity following excitation at 405 nm was measured over 60 minutes of incubation of TEG-TC-ONOO^− with each species and presented based on the signal-to-background ratio F/F0, where F and F0 are defined as the fluorescence with and without the analyte. In the absence of a redox species, F/F0 for TEG-TC-ONOO^− increased only 13% (F/F0=1.13) over 60 minutes. Treatment of TEG-TC-ONOO^− with ONOO^− gave rise to ˜570% increase in fluorescence (F/F0=6.69). […] NO·, a free radical RNS that serves as a signaling molecule in cells, had essentially no effect on fluorescence intensity (F/F0=1.03).

[6] = system: HeLa and RAW 264.7 cells; test: Subcellular localization of non-amphiphilic probes in cells treated directly; assay type: cell-based; conditions: 20 minutes, TEG-TC-ONOO− cells then stimulated
Description: Therefore, cells were treated with TEG-TC (positive control) or TEG-TC-ONOO− directly and incubated for 20 minutes. Those treated with TEG-TC-ONOO− were then stimulated via the methods described above. […] In the case of RAW 264.7 cells, the intracellular homogeneity of the signal was especially substantial.

[7] = pKa by UV-Vis spectrophotometric measurements; assay type: physicochemical
Description: as §1, §2

Structure (SMILES): CCCCCCCCCCCCCCCC(=O)OCC(COP(=O)([O-])OCC[N+](C)(C)Cc1cn(-c2ccc3c(c2)C(=O)OC32c3ccc(OC(=O)OCc4ccc(B5OC(C)(C)C(C)(C)O5)cc4)cc3Oc3cc(OC(=O)OCc4ccc(B5OC(C)(C)C(C)(C)O5)cc4)ccc32)nn1)OC(=O)CCCCCCCCCCCCCCC (racemic) [DPPC-TF-H2O2]
- Emmax [1]: 519.5 nm
- Exmax [1]: 495.2 nm
- Ext. Coeff. [1]: 10685 M⁻¹ cm⁻¹
- Relative Brightness ([1]; Table 3, brightness compared to that of DPPC-TF-H2O2): 1.0
- Brightness [1]: 214
- Quantum Yield (relative fluorescence quantum yield ΦFrel) ([1]; standard fluorescein): 0.02
- GV fluorescence at the membrane ([2]; GVs with POPC, POPG, cholesterol, H2O2 (100 PM) over 90 min): substantial fluorescence increase
- GV fluorescence intensities ([2]; equimolar other ROS (NO, ·OH, O2·^−)): comparable to those for the untreated GVs

Structure (SMILES): O=C(O)c1cc2cc3c4c(c2oc1=O)CCCN4CCC3 [Coumarin 343]
- absolute fluorescence quantum yield (ΦF) [3]: 0.63

Structure (SMILES): O=C(Oc1ccc(CCC(=O)C(F)(F)F)cc1)Oc1ccc2cc(-n3cc(COCCOCCOCCO)nn3)c(=O)oc2c1 [TEG-TC-ONOO^−]
- Emmax [1]: 472.0 nm
- Exmax [1]: 400.0 nm
- Ext. Coeff. [1]: 4475 M⁻¹ cm⁻¹
- Relative Brightness ([1]; Table 2, DPPC-TC-ONOO^− = 1.0): 1.4
- Brightness [1]: 358
- Quantum Yield (relative fluorescence quantum yield ΦFrel) ([1]; standard coumarin 343): 0.08
- F/F0 ([4]; ONOO^− 600 μM, 60 min, 405/475 nm): 6.69
- difference in fluorescence between peroxynitrite-treated and untreated samples ([4]; ONOO^− (600 PM), Tris 50 mM pH 7.5, end of 60 minutes): up to 5 fold
- relative fluorescence intensity as % of that of TEG-TC (positive control) ([4]; ONOO^− treated, 60 minutes): ~85%
- F/F0 ([4]; absence of a redox species, 60 minutes, 405 nm excitation): 1.13
- increase in F/F0 ([4]; absence of a redox species, over 60 minutes): 13%
- fluorescence compared to the sample untreated ([4]; probe 1 μM, ONOO^− (600 PM), Tris 50 mM pH 7.5, within the first 10 minutes): ~3 fold
- increase in fluorescence ([4]; treatment with ONOO^−, 60 min): ~570%
- relative fluorescence enhancement for ONOO^− compared to the other RNS and ROS [5]: ~36 fold
- F/F0 ([5]; H2O2 600 μM): 1.16
- fluorescence intensity stronger than background ([5]; H2O2, 60 min): 16%
- F/F0 ([5]; NO· 600 μM): 1.03
- subcellular distribution of signal [6]: throughout the cells, including the nucleus

Structure (SMILES): O=c1oc2cc(O)ccc2cc1-n1cc(COCCOCCOCCO)nn1 [TEG-TC]
- pKa [7]: 7.1±0.1
- Emmax [1]: 471.4 nm
- Exmax [1]: 397.0 nm
- Ext. Coeff. [1]: 15613 M⁻¹ cm⁻¹
- enhanced brightness, uncaging product vs caged probe [1]: 28 fold
- Relative Brightness ([1]; Table 2, DPPC-TC-ONOO^− = 1.0): 41.1
- Relative Brightness ([1]; Table 3, brightness compared to that of DPPC-TC-H2S): 143.2
- Brightness [1]: 10305
- Quantum Yield (relative fluorescence quantum yield ΦFrel) ([1]; standard coumarin 343): 0.66
- subcellular distribution of signal [6]: throughout the cells, including the nucleus
